In series [1] the test system is rat bone and intestinal tissues. To be noted: in vivo.
For series [2] the test system is unchanged. The series is described as follows: Tissue fluorescence microscopy/tissue selectivity of Tb chelates in rats.
In series [3] the test system is IEC-6 cells. The series is described as follows: Cytotoxicity IEC-6 cells. The class given is cell-based. The source says:
*Average of triplicate counting. Procedure detailed in Ref. 27

In series [4] the test system is colon adenocarcinoma (1,2 dimethylhydrazine induced tumors). Briefly: Fluorescence imaging of normal versus neoplastic colon tissue after lavage. Type of series: in vivo, Sprague Dawley rat. To be noted: 0.1 mmol/kg, 20 minutes. The method, then: Tumors were induced in Sprague Dawley rats via injection of 1,2 dimethylhydrazine dihydrochloride and the subsequent feeding of a high fat, meat-based diet. […] One animal with an observable lesion was anesthetized, allowing it to respire during lavage introduction of the fluorescent marker. An aqueous solution of Tb-PTCMB at a concentration of 0.1 mmol/kg animal body weight, was administered to a Sprague Dawley rat using the 1.0 mm working lumen of the micro-endoscope. Introduction of the marker solution was made at the site of the suspect tissue mass with a volume necessary to fill the entire large intestine (method described in U.S. Pat. No. 5,456,245). […]
Upon dissection of the large intestine, a large occlusive mass approximately 4.5 cm by 5.0 cm was found approximately 15 cm from the rectum. […] Four slides from each tissue region were first left unstained for fluorescence microscopy imaging as described below and then stained with Hematoxylin and Eosin (H&E stain). Using standard histological criteria for diagnosis, tissue taken from the suspect site was determined to be adenocarcinoma. […] The tissue taken from a location removed from the abnormality was determined to be normal.
Using an in-house modified microscope, samples from the suspect and remote regions of the animal were imaged. Shown in FIGS. 10C and 11C are the fluorescence images of the identical regions of the same tissues. […]

Series [5] concerns HT-29 cells. Briefly: Cytotoxicity HT-29 cells (Trypan blue). Type of series: cell-based. To be noted: 2 mL of 2 mM Tb-PCTMB.
Method: HT-29 cell lines were obtained from American Type Culture Collection (ATCC) and maintained in Dulbecco's Modified Eagle Medium (DMEM) with 10% fetal bovine serum. Tree days prior to confluence, the cells were inoculated with 2 mL of 2 mM Tb-PCTMB and allowed to grow to confluence. Two days prior to confluence, the unbound TB-PCTMB was removed with four washings of PBS and the cells were removed from the flask with 3 mL of trypsin. The cell suspension was transferred to a centrifuge tube with 12 mL of growth media and spun a 1000 g for 10 minutes to pellet the cells. The media and the trypsin were removed and the cell suspension was resuspended in 5 mL of media. For ease in counting, 100 μL of the cell suspension was mixed with 100 μL of media in a microfuge tube. Fifty μL of this dilution was mixed with 50 μL of Trypan blue stain and loaded into the hemocytometer. The cells in 5 squares on the hemocytometer were counted where stained cells were dead and unstained cells were alive. Multiplication of the average count per square by the dilution factor (4) gave the number of cells×10^4 per mL. The number of cells reported is the average of three individual counts.
Series [6] deals with UMR106 cells. The series is described as follows: Subcellular uptake fluorescence in UMR106 cells (organelle and membrane smears). Type of series: cell-based. The settings on record: 2 mL of 2×10^-3 M. The procedure:
UMR106 cells were obtained from American Type Culture Collection and maintained in Basal Eagle Media with 10% fetal bovine serum. Cells were propagated so that 3×10^7 cells were contained in 25 mL. One day prior to confluence, the cells were inoculated with 2 mL of 2×10^-3 M Tb-PCTMP. At confluence, the media and Tb-TCTMP was removed with four washings of PBS. Cells were separated from the flask with 3 mL of trypsin, transferred to a centrifuge tube with 12 mL of media and spun at 1000 g for 10 minutes to pellet the cells. The pellet was resuspended in 2 mL of media and frozen by submersion of the tube into liquid nitrogen. The frozen mixture was scooped out of the tube and transferred to a mortar. To the mixture, an equal weight of sea sand and 10 mL of liquid nitrogen were added. This mixture was ground with a pestle for 30 minutes until liquefied. The resulting mixture was transferred to a centrifuge tube and spun at 10,000 rpm for 15 minutes leaving intact cells, sand and membranes in the pellet and the cytoplasmic organelles in the supernatant. The supernatant was spun at 45,000 rpm for 90 minutes in an ultracentrifuge tube to pellet the organelles. […] Both the membranes and the organelles were smeared onto microscope slides and analyzed using a Zeiss microscope, modified for UV excitation.

The subject of series [7] is rat bone (femur). The series is described as follows: Micro-endoscopic fluorescence imaging of rat femur. Type of series: in vivo. The source says:
The optical train used is depicted in FIG. 5. For the resolution studies a 1951 USAF resolution target was used. The resolution target consists of groups of elements (lines) that are a known width, length and distance apart. The lines on the target are made from a black emulsion deposited onto a white positive background (clear glass). The images are obtained by back illuminating the resolution target using an IR filtered xenon discharge lamp. The beam from an optical fiber passes through a diffuser of in-house construction which replaces the 270 nm interference filter (4) shown in FIG. 5. The distance of the scope tip from the target (1.5 mm) was chosen so that the best in-focus image is produced. The image was collected by a 0°, 30° and 60° viewing angle with respect to the central axis of the thin rod lens endoscope. A 10× microscope objective, placed 10 mm from the endoscope, collected, magnified and played the image onto a CCD (5). […] The software produces a graph of light intensity as a function of position across the line pairs. The limiting resolution (LP/mm) is calculated using a aerial image modulation (AIM) plot and is defined as the point where the dI/dx remains constant.
Field of view measurements were made by repositioning the target so that a single line laterally spanned the field of view of the endoscope. The circular field of view is easily calculated knowing the length of the line on the resolution target the represents the diameter of the viewing zone. […]
For analysis of the bone fluorescence, two rats were injected with Tb-PCTMP or Tb-BP2P. […]
For the fluorescence measurements, the instrument in FIG. 5 was modified. […] A 550 nm bandpass filter was placed between the microscope objective (3) and the CCD (5) to select fluorescence and block background light. […]
Upon visual inspection of the high resolution video monitor (7), resolution of 181 LP/mm can be obtained. […] As calculated in a manner similar to Example II, it is possible to estimate the quantity of solute within a particular imaged zone. […]

Series [8] in a line: Fluorescence properties of the complexes. Type of series: physicochemical. To be noted: excited with a UV lamp. The source says:
The use of terbium (Tb) or europium (Eu) as the central metal ion to render a tissue specific fluorescent probe is very appealing. Derivatives of this type would be valuable for visual assessment of tissue conditions such as early detection of cancer and would not depend upon protein conjugation to reach their target. Furthermore, concentration of the active fluorescent material could conceivably be much higher than in the case of immunoassays making detection much easier. The present complexes have an excitation band of 250 to 290 nm and a spike emission with peaks at bands of 490 to 510 nm, 540 to 560 nm, 590 to 600 nm and 615 to 635 nm, high quantum efficiency and millisecond relaxation lifetimes which allow signal collection after prompt tissue autofluorescence has subsided and allows data collection outside the range for normal tissue fluorescence. […] Furthermore, chelates derived from this family of macrocyclic ligands are among the most thermodynamically and kinetically inert lanthanide complexes, a paramount consideration for biological studies where metal ion toxicity is of major importance.

“Also recorded” adds a separate entry of the source. Where two headings read alike, the source gives them in different places.

Turning to `CCCCOP(=O)(O)CN1CCN(CP(=O)(O)OCCCC)Cc2cccc(n2)CN(CP(=O)(O)OCCCC)CC1.[Tb]` [Tb-PCTMB, terbium 3,6,9-tris(methylenephosphonic acid n-butyl ester)-3,6,9,15, tetraazabicyclo[9.3.1]pentadeca-1(15),11,13-triene], in series [1], the “interactions between the chelate and blood proteins” value is “enhances interactions between the chelate and blood proteins”. For the same molecule, the tissue uptake/selectivity entry in series [2] is reported as “substantial hepatobiliary uptake; also recorded: concentrates in the small intestine”. The “Total Cells” value in series [3] (average of triplicate counting, control 5.70 × 10^6) is on record as 5.30 × 10^6. The “Dead Cells” value worked out at 9.4% in series [3] (control 10.5%) and 8.5% in series [5] (control 5.7%). Moreover, the “Live Cells” value is 90.6% in series [3] (control 89.5%) and 91.5% in series [5] (control 94.3%). The “relative difference between the quantity of marker solute in normal versus neoplastic tissue” value in series [4] is “an order of magnitude”. In series [4], the “uptake by abnormal colon tissue” value is given as “preferential or enhanced uptake”. In addition, the “Total (Cells/ml)” value in series [5] (average of triplicate counting, control 5.30 × 10^6) is 4.70 × 10^6 Cells/ml.
Regarding `O=P(O)(O)CN1CCN(CP(=O)(O)O)Cc2cccc(n2)CN(CP(=O)(O)O)CC1.[Tb]` [Tb-PCTMP, terbium 3,6,9-tris(methylenephosphonic acid)-3,6,9,15-tetraazabicyclo[9.3.1]pentadeca-1(13),11,13-triene], the tissue uptake/selectivity entry in series [1] was “skeletal system uptake”. In addition, in series [6] (control no discernible fluorescence), the “fluorescence in the organelle smear of dosed cells” value is on record as “significant fluorescence was detected”. For the same molecule, the “fluorescence in the membrane smears” value in series [6] (dosed and control cells) was “No signal was detected”. In addition, in series [7] (excised rat femur, FIG. 8), the “quantity per pixel, blue-purple contour” value was 1.54×10^-15 moles Tb-PCTMP/pixel and the “quantity per pixel, red contour” value is recorded as 3.35×10^-15 moles Tb-PCTMP/pixel. The “solute present in entire imaged region of the bone (surface)” value in series [7] (rat femur, 2 hours) is reported as “about 5.19 picomoles”. Moreover, in series [8], the “visible emission of the isolated complex” value is “brilliant green visible emission”.
As to `O=P(O)(O)CN1Cc2cccc(n2)CN(CP(=O)(O)O)Cc2cccc(n2)C1.[Tb]` [Tb-BP2P, terbium N,N'-bis(methylenephosphonic acid)-2,11,diaza[3.3]-(2,6)pyridinophane], the “distribution of the chelate in bone” value in series [1] is “fairly uniform”.

The record behind these values is US5928627A, “Fluorescent chelates as visual tissue specific imaging agents” (The Dow Chemical Company, priority 1997, dated 1999).
